Results reported in PubChem BioAssay (NCI).
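1) Cells in 96-well plates. 2) Compound, 48 h, 5 concentrations. 3) Linear interpolation between surrounding doses. 4) Unreached endpoint = highest concentration. GI50: concentration for 50% inhibition of growth. The concentration for full growth arrest is given as TGI.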

Columns and labels:
Experiment in all cases: NCI-60 cell line screen, 48 h
DMS 273 small cell lung = system: DMS 273 small cell lung
UACC-257 melanoma = system: UACC-257 melanoma
SK-MEL-28 melanoma = system: SK-MEL-28 melanoma
HT29 colon = system: HT29 colon
CCRF-CEM leukemia = system: CCRF-CEM leukemia
UACC-62 melanoma = system: UACC-62 melanoma
DMS 114 small cell lung = system: DMS 114 small cell lung
MOLT-4 leukemia = system: MOLT-4 leukemia
MCF7 breast = system: MCF7 breast
MDA-MB-435 = system: MDA-MB-435

SMILES | TGI (DMS 273 small cell lung) [µM] | TGI (UACC-257 melanoma) [µM] | TGI (SK-MEL-28 melanoma) [µM] | TGI (HT29 colon) [µM] | TGI (CCRF-CEM leukemia) [µM] | TGI (UACC-62 melanoma) [µM] | TGI (DMS 114 small cell lung) [µM] | TGI (MOLT-4 leukemia) [µM] | TGI (MCF7 breast) [µM] | TGI (MDA-MB-435) [µM] | GI50 (MCF7 breast) [µM] | GI50 (UACC-257 melanoma) [µM] | GI50 (SK-MEL-28 melanoma) [µM] | GI50 (HT29 colon) [µM] | GI50 (CCRF-CEM leukemia) [µM] | GI50 (UACC-62 melanoma) [µM] | GI50 (MDA-MB-435) [µM] | GI50 (MOLT-4 leukemia) [µM]
CC1COC(C)(C)P(=O)(c2ccccc2)C1 (configuration not stated) | > 100 | > 100 | > 100 | > 100 | > 100 | > 100 | > 100 | > 100 |  |  |  |  |  |  |  |  |  | 
O=C(O)c1ccc(OCc2ccccc2)c(Cl)c1 |  | > 100 | > 100 | > 100 | > 100 | > 100 |  | > 100 | > 100 | > 100 |  |  |  |  |  |  |  | 
O=[N+]([O-])c1ccc(N2N=C(c3ccc(NCc4nc5ccccc5[nH]4)cc3)CC2c2ccco2)cc1 (configuration not stated) | 51.8 |  | > 100 | 90.6 | > 100 | 69.3 | 50.9 | 31.3 |  |  |  |  |  |  |  |  |  | 
N#CC1=C(N)Oc2cc(O)ccc2C1c1cccc2ccccc12 (configuration not stated) |  | 30.1 | 27.9 | 27 | 36.9 | 27.3 |  | 31.3 | 24.5 | 6.68 | 8.69 | 14.1 | 12.7 | 8.89 | 7 | 12.6 | 2.51 | 5.58
Cc1nc(-[n+]2nc(-c3ccncc3)nn2-c2ccccc2)sc1C |  | > 100 | > 100 | > 100 | > 100 | > 100 |  | > 100 | > 100 | > 100 |  |  |  |  |  |  |  | 
CCOP(=O)(OCC)OC1C=CC2CCC1C2 (configuration not stated) | > 100 | > 100 | > 100 | > 100 | > 100 | > 100 | > 100 | > 100 |  |  |  |  |  |  |  |  |  | 
Cc1cc(C)c(/C=C2\C(=O)Nc3ccc(NC(=O)CCCCCCC(=O)NO)cc32)[nH]1 |  | > 100 | > 100 | > 100 | > 100 | 2.75 |  | 35.3 | > 100 | > 100 | 0.529 | 0.418 | 0.525 | 0.859 | 0.311 | 0.407 | 0.44 | 0.43
O=C1OCC2C1C1c3ccccc3C(O)c3ccccc3C21 (configuration not stated) |  | > 100 | > 100 | > 100 | > 100 | > 100 | > 100 | > 100 |  |  |  |  |  |  |  |  |  | 
O=C(Nc1ccc(F)cc1)c1cc(S(=O)(=O)Nc2nc3ccccc3o2)c(SCc2ccccc2)cc1Cl |  | 28.4 | 58.2 | > 100 | 31.2 | 27.6 |  | 52.4 | 63.7 | 30.7 | 24.8 | 13.5 | 25.8 | 27 | 12.9 | 14.4 | 16.3 | 19.5
C=C1C(=O)OC2CC(C)C3(O)CCC(=O)C3(C)CC12 (configuration not stated) |  | > 100 | > 100 | 43.4 | > 100 | > 100 |  | 58 | > 100 | > 100 |  |  |  |  |  |  |  | 
